Experimental data: ChEMBL document CHEMBL4376868, “Structure-Activity Relationship Study of Novel 6-Aryl-2-benzoyl-pyridines as Tubulin Polymerization Inhibitors with Potent Antiproliferative Properties” (J Med Chem, 2020)

Tested on: RPMI-7951
Test: Antiproliferative activity against human RPMI7951 cells measured after 72 hrs by MTS assay
Type: functional, cell-based
Conditions: RPMI-7951, 72 h

Compound | IC50 [nM]
COc1cc(C(=O)c2cc(C)cc(-c3ccc(C)c(O)c3)n2)cc(OC)c1OC | 17.1
COc1cc(C(=O)c2cccc(-c3ccc4[nH]ccc4c3)n2)cc(OC)c1OC | 7.4
COc1cc(C(=O)c2cccc(-c3cccc4[nH]ccc34)n2)cc(OC)c1OC | 6.5
CCc1ccc(-c2cccc(C(=O)c3cc(OC)c(OC)c(OC)c3)n2)cc1 | 18.3
COc1cc(C(=O)c2cccc(-c3cc[nH]c3)n2)cc(OC)c1OC | 45.2
COc1cc(C(=O)c2cccc(-c3cncc4ccccc34)n2)cc(OC)c1OC | > 1000
COc1cc(C(=O)c2cccc(-c3ccc(O)cc3)n2)cc(OC)c1OC | 22.2
COc1cc(C(=O)c2cccc(-c3ccc4[nH]c5ccccc5c4c3)n2)cc(OC)c1OC | 202
COc1cc(C(=O)c2cccc(-c3ccncc3)n2)cc(OC)c1OC | > 1000
COc1cc(C(=O)c2cccc(-c3ccc(C)c(Cl)c3)n2)cc(OC)c1OC | 22.6
COc1cc(C(=O)c2cccc(-c3c[nH]c4ccccc34)n2)cc(OC)c1OC | 19.5

Tested on: MDA-MB-453
Test: Antiproliferative activity against human MDA-MB-453 cells measured after 72 hrs by MTS assay
Type: functional, cell-based
Conditions: MDA-MB-453, 72 h

Compound | IC50 [nM]
COc1cc(C(=O)c2cc(C)cc(-c3ccc(C)c(O)c3)n2)cc(OC)c1OC | 17.8
COc1cc(C(=O)c2cccc(-c3cccc4[nH]ccc34)n2)cc(OC)c1OC | 16
COc1cc(C(=O)c2cccc(-c3cc[nH]c3)n2)cc(OC)c1OC | 33.9
COc1cc(C(=O)c2cccc(-c3cncc4ccccc34)n2)cc(OC)c1OC | > 1000
COc1cc(C(=O)c2cccc(-c3ccc4[nH]c5ccccc5c4c3)n2)cc(OC)c1OC | 301
COc1cc(C(=O)c2cccc(-c3ccncc3)n2)cc(OC)c1OC | > 1000
COc1cc(C(=O)c2cccc(-c3c[nH]c4ccccc34)n2)cc(OC)c1OC | 8.5

More lines, in order of falling IC50, values ahead:

IC50 [nM] | Compound
28.5 | COc1cc(C(=O)c2cccc(-c3ccc(O)cc3)n2)cc(OC)c1OC
16.5 | CCc1ccc(-c2cccc(C(=O)c3cc(OC)c(OC)c(OC)c3)n2)cc1
14.9 | COc1cc(C(=O)c2cccc(-c3ccc4[nH]ccc4c3)n2)cc(OC)c1OC
13.5 | COc1cc(C(=O)c2cccc(-c3ccc(C)c(Cl)c3)n2)cc(OC)c1OC

Tested on: A-375
Test: Antiproliferative activity against human A375 cells measured after 72 hrs by MTS assay
Type: functional, cell-based
Conditions: A-375, 72 h

Compound | IC50 [nM]
COc1cc(C(=O)c2cc(C)cc(-c3ccc(C)c(O)c3)n2)cc(OC)c1OC | 18.1
COc1cc(C(=O)c2cccc(-c3cccc4[nH]ccc34)n2)cc(OC)c1OC | 9.3
COc1cc(C(=O)c2cccc(-c3cc[nH]c3)n2)cc(OC)c1OC | 46.6
COc1cc(C(=O)c2cccc(-c3cncc4ccccc34)n2)cc(OC)c1OC | > 1000
COc1cc(C(=O)c2cccc(-c3ccc4[nH]c5ccccc5c4c3)n2)cc(OC)c1OC | 277
COc1cc(C(=O)c2cccc(-c3ccncc3)n2)cc(OC)c1OC | > 1000
COc1cc(C(=O)c2cccc(-c3c[nH]c4ccccc34)n2)cc(OC)c1OC | 19.2

Other lines, results leading:

IC50 [nM] | Compound
42.4 | COc1cc(C(=O)c2cccc(-c3ccc(O)cc3)n2)cc(OC)c1OC
19.5 | CCc1ccc(-c2cccc(C(=O)c3cc(OC)c(OC)c(OC)c3)n2)cc1
7 | COc1cc(C(=O)c2cccc(-c3ccc4[nH]ccc4c3)n2)cc(OC)c1OC
24.2 | COc1cc(C(=O)c2cccc(-c3ccc(C)c(Cl)c3)n2)cc(OC)c1OC

Tested on: MDA-MB-231
Test: Antiproliferative activity against human MDA-MB-231 cells measured after 72 hrs by MTS assay
Type: functional, cell-based
Conditions: MDA-MB-231, 72 h

Compound | IC50 [nM]
COc1cc(C(=O)c2cc(C)cc(-c3ccc(C)c(O)c3)n2)cc(OC)c1OC | 17.2
COc1cc(C(=O)c2cccc(-c3cccc4[nH]ccc34)n2)cc(OC)c1OC | 17.9
COc1cc(C(=O)c2cccc(-c3cc[nH]c3)n2)cc(OC)c1OC | 41
COc1cc(C(=O)c2cccc(-c3cncc4ccccc34)n2)cc(OC)c1OC | > 1000
COc1cc(C(=O)c2cccc(-c3ccc4[nH]c5ccccc5c4c3)n2)cc(OC)c1OC | 424
COc1cc(C(=O)c2cccc(-c3ccncc3)n2)cc(OC)c1OC | > 1000
COc1cc(C(=O)c2cccc(-c3c[nH]c4ccccc34)n2)cc(OC)c1OC | 23.8

Next, values leading:

IC50 [nM] | Compound
27.7 | COc1cc(C(=O)c2cccc(-c3ccc(O)cc3)n2)cc(OC)c1OC
21 | CCc1ccc(-c2cccc(C(=O)c3cc(OC)c(OC)c(OC)c3)n2)cc1
17.7 | COc1cc(C(=O)c2cccc(-c3ccc4[nH]ccc4c3)n2)cc(OC)c1OC
20 | COc1cc(C(=O)c2cccc(-c3ccc(C)c(Cl)c3)n2)cc(OC)c1OC

Tested on: SK-BR-3
Test: Antiproliferative activity against human SK-BR-3 cells measured after 72 hrs by MTS assay
Type: functional, cell-based
Conditions: SK-BR-3, 72 h

Compound | IC50 [nM]
COc1cc(C(=O)c2cc(C)cc(-c3ccc(C)c(O)c3)n2)cc(OC)c1OC | 15
COc1cc(C(=O)c2cccc(-c3cccc4[nH]ccc34)n2)cc(OC)c1OC | 19
COc1cc(C(=O)c2cccc(-c3cc[nH]c3)n2)cc(OC)c1OC | 51.2
COc1cc(C(=O)c2cccc(-c3cncc4ccccc34)n2)cc(OC)c1OC | > 1000
COc1cc(C(=O)c2cccc(-c3ccc4[nH]c5ccccc5c4c3)n2)cc(OC)c1OC | 321
COc1cc(C(=O)c2cccc(-c3ccncc3)n2)cc(OC)c1OC | > 1000
COc1cc(C(=O)c2cccc(-c3c[nH]c4ccccc34)n2)cc(OC)c1OC | 19.7

The next lines start with the values.

IC50 [nM] | Compound
386 | COc1cc(C(=O)c2cccc(-c3ccc(O)cc3)n2)cc(OC)c1OC
22.4 | CCc1ccc(-c2cccc(C(=O)c3cc(OC)c(OC)c(OC)c3)n2)cc1
14.9 | COc1cc(C(=O)c2cccc(-c3ccc4[nH]ccc4c3)n2)cc(OC)c1OC
13.4 | COc1cc(C(=O)c2cccc(-c3ccc(C)c(Cl)c3)n2)cc(OC)c1OC

Tested on: M14
Test: Antiproliferative activity against human M14 cells measured after 72 hrs by MTS assay
Type: functional, cell-based
Conditions: M14, 72 h

Compound | IC50 [nM]
COc1cc(C(=O)c2cc(C)cc(-c3ccc(C)c(O)c3)n2)cc(OC)c1OC | 22.3
COc1cc(C(=O)c2cccc(-c3ccc4[nH]ccc4c3)n2)cc(OC)c1OC | 6.7
COc1cc(C(=O)c2cccc(-c3cccc4[nH]ccc34)n2)cc(OC)c1OC | 12.2
CCc1ccc(-c2cccc(C(=O)c3cc(OC)c(OC)c(OC)c3)n2)cc1 | 17.5
COc1cc(C(=O)c2cccc(-c3cc[nH]c3)n2)cc(OC)c1OC | 45.1
COc1cc(C(=O)c2cccc(-c3cncc4ccccc34)n2)cc(OC)c1OC | > 1000
COc1cc(C(=O)c2cccc(-c3ccc(O)cc3)n2)cc(OC)c1OC | 28.9
COc1cc(C(=O)c2cccc(-c3ccc4[nH]c5ccccc5c4c3)n2)cc(OC)c1OC | 293
COc1cc(C(=O)c2cccc(-c3ccncc3)n2)cc(OC)c1OC | > 1000
COc1cc(C(=O)c2cccc(-c3ccc(C)c(Cl)c3)n2)cc(OC)c1OC | 16.6
COc1cc(C(=O)c2cccc(-c3c[nH]c4ccccc34)n2)cc(OC)c1OC | 17.8
